We go through two compounds from publication PMC2905478 (Peptides, 2010).

Assay [1] has as its target T1, hBRS-3 (Homo sapiens, UniProt P32247). Conditions: for affinities from binding studies for the hBRS-3 receptor, range over 3 cell lines: 3 hBRS-3 cell lines (NC-N417, Balb, H1299).
For assay [2], the target named is T1, hBRS-3. Conditions: binding; hBRS-3 containing cells (H1299, Balb; Tables 2 and 3).
The target of assay [3] is T1, hBRS-3. Conditions: binding affinities.
Assay [4] addresses T2, hGRPR (Homo sapiens, UniProt P30550). As to conditions: binding, HuTu-80 cells, native hGRPR.
Assay [5] deals with T3, hNMBR (Homo sapiens, UniProt P28336). Conditions: binding; hNMBR/H1299 and hNMBR/Balb cells.
T3 sequence (P28336 whole entry): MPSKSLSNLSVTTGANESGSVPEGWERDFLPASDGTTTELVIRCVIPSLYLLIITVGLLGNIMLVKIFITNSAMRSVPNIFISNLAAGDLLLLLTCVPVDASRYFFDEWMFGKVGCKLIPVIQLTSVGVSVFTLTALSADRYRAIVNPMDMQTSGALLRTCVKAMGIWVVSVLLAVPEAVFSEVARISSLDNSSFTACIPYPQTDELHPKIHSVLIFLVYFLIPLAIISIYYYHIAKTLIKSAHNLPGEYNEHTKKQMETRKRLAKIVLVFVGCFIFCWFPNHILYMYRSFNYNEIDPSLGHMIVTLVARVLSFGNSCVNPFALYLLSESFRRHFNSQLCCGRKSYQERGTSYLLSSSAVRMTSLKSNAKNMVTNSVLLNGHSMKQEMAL
The target of assay [6] is T1, hBRS-3. Conditions: for agonist efficacy for [3H]IP generation (full/partial agonist): each of the hBRS-3 containing cells, concentrations up to 10,000 nM; for fold less potent than peptide #1 at activating PLC: range over three hBRS-3 containing cells.
Assay [7] concerns the target T1, hBRS-3. The experiment in a line: biochemical. Conditions: IC50 (nM) hBRS-3/N417, half-maximal inhibition of binding; 50 pM radioligand, 22 °C, 60 min.
Assay [8] concerns the target T3, hNMBR. Put plainly: biochemical.
The target in assay [9] is T3, hNMBR. The experiment in a line: biochemical. Conditions: IC50 (nM) hNMBR/H1299, half-maximal inhibition of binding.
Assay [10] addresses T2, hGRPR. Put plainly: Stimulation of [3H]IP generation. As to conditions: for fold less potent than peptide #1 at activating PLC: hGRPR containing HuTu-80 and Balb cells.
In assay [11] the target is T2, hGRPR. The experiment in a line: Stimulation of [3H]IP generation.
Assay [12] deals with T3, hNMBR. Put plainly: Stimulation of [3H]IP generation.
Assay [13] deals with T3, hNMBR. The experiment in a line: Stimulation of [3H]IP generation. Conditions: for fold less potent than peptide #1 at activating PLC: hNMBR containing H1299 and Balb cells.

SMILES strings stand for the structures. Read-outs that look alike come from different tables or passages of the source. *1 amine or outer side, *2 acyl side, *3 side chain or, on linkers, in order; H or OH if unused. Where a SMILES comes first, the peptide text is derived from it. [ ]: non-standard residue; d: D form. X1 = O=C(C[C@@H](N[*:1])c1ccc(Cl)cc1)[*:2]; β3hPhg = O=C(C[C@@H](N[*:1])c1ccccc1)[*:2]; Nle = CCCC[C@H](N)C(=O)O

T1 sequence (P32247 whole entry): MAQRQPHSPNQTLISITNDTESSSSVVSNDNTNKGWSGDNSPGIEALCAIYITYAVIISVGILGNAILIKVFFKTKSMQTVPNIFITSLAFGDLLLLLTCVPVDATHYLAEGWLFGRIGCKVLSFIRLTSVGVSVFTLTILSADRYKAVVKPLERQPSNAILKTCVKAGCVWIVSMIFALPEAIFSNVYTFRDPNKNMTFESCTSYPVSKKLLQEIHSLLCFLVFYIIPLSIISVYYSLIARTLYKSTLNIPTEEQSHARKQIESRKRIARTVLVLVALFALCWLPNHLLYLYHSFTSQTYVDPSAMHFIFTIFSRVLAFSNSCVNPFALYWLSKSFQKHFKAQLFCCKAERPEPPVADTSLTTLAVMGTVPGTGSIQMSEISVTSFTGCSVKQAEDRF
T2 sequence (P30550 whole entry): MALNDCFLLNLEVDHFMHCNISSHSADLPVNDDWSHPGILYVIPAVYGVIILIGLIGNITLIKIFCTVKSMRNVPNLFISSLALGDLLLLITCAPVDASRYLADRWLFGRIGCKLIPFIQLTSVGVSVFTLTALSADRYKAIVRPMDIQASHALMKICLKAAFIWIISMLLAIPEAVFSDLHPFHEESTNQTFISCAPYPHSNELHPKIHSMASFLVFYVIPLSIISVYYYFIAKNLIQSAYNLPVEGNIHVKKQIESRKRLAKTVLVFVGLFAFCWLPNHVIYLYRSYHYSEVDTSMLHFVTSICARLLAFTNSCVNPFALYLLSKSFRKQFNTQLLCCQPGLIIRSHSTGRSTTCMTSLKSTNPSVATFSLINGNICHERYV

As to `CCCC[C@H](NC(=O)[C@H](Cc1ccccc1)NC(=O)[C@H](Cc1c[nH]cn1)NC(=O)C[C@@H](NC(=O)[C@@H](NC(=O)[C@H](C)NC(=O)[C@H](Cc1c[nH]c2ccccc12)NC(=O)[C@H](CCC(N)=O)NC(=O)[C@H](N)Cc1ccc(O)cc1)C(C)C)c1ccccc1)C(N)=O` [Peptide 2, [DTyr^6, (R)-Apa^11, Phe^13, Nle^14]Bn(6-14)] (H-[dY]QWAV[β3hPhg]HF[Nle]-NH2), the “affinities from binding studies for the hBRS-3 receptor, range over 3 cell lines” value at hBRS-3 [1] is given as “nM affinities”. In addition, at hBRS-3 [1] (binding affinities), the “selectivity for hBRS-3 in NCI-N417 cell over hGRPR natively expressed in Hutu cells” value was 13 fold. Further, the “selectivity for hBRS-3 natively expressed in NCI-N417 cells than hNMBR expressed in NCI-H1299 cells” value on hBRS-3 [1] (binding affinities) stood at 15 fold. At hBRS-3 [1] (binding, native hBRS-3 in NCI-N417 cells), the “fold lower affinity than the universal ligand, peptide #1” value is on record as 3 fold. Further, at hBRS-3 [1] (range over cells), the “selectivity for hBRS-3 over hGRPR in the different cells based on binding affinities” value was 13–32 fold. Further, the “selectivity for hBRS-3 over the hNMBR based on binding affinities” value on hBRS-3 [1] (range over cells) was 15 to 46 fold. For the same compound, the “fold lower affinity than peptide #1, range over hBRS-3 cell lines” value on hBRS-3 [2] is listed as 4–49 fold. The “selectivity for hBRS-3 expressed in Balb cells over hGRPR in the same cells” value on hBRS-3 [3] is 32 fold. Moreover, the “selectivity for hBRS-3 expressed in Balb cells than hNMBR in the same cells” value on hBRS-3 [3] worked out at 47 fold. Moreover, the “fold lower affinity than GRP or peptide #1” value at hGRPR [4] is on record as 475 fold. At hNMBR [5], the “fold lower affinity than NMB (and peptide #1)” value was 200–1100 fold. Further, at hBRS-3 [6] (Tables 2-4), the “selectivity (PLC potency) for hBRS-3 cells over hGRPR containing cells” value lay in the range of 10 to 26 fold. At hBRS-3 [6], the “agonist efficacy for [3H]IP generation (full/partial agonist)” value is on record as “none functioning as a partial agonist”. Moreover, the “fold less potent than peptide #1 at activating PLC” value is recorded as 4–14 fold at hBRS-3 [6], 10–25 fold on hGRPR [10] and above 250 fold at hNMBR [13]. For the same compound, the IC50 was 4.3 ± 0.2 nM at hBRS-3 [7], 158 ± 8 nM against hNMBR [8] and 66.1 ± 3.4 nM at hNMBR [9]. The EC50 is 318 ± 25 nM at hGRPR [10], 58 ± 2 nM at hGRPR [11], 38 ± 1.2 nM on hNMBR [12] and 195 ± 11 nM at hNMBR [13].
For `CCCC[C@H](NC(=O)[C@H](Cc1ccccc1)NC(=O)[C@H](Cc1c[nH]cn1)NC(=O)C[C@@H](NC(=O)[C@@H](NC(=O)[C@H](C)NC(=O)[C@H](Cc1c[nH]c2ccccc12)NC(=O)[C@H](CCC(N)=O)NC(=O)[C@H](N)Cc1ccc(O)cc1)C(C)C)c1ccc(Cl)cc1)C(N)=O` [Peptide 3, [DTyr^6, (R)-Apa^11-4Cl, Phe^13, Nle^14]Bn(6-14)] (H-[dY]QWAV[X1]HF[Nle]-NH2), the “affinities from binding studies for the hBRS-3 receptor, range over 3 cell lines” value on hBRS-3 [1] is recorded as “nM affinities”. Also, the “fold lower affinity than peptide #1, range over hBRS-3 cell lines” value on hBRS-3 [2] was 2.5–17 fold. At hGRPR [4], the “fold lower affinity than GRP or peptide #1” value was 750 fold. Besides, the “fold lower affinity than NMB (and peptide #1)” value on hNMBR [5] was 745–5900 fold. On hBRS-3 [6], the “agonist efficacy for [3H]IP generation (full/partial agonist)” value is “none functioning as a partial agonist”. Also, the “fold less potent than peptide #1 at activating PLC” value at hBRS-3 [6] is recorded as 3.3–10 fold; at hGRPR [10], 123–270 fold; on hNMBR [13], above 1000 fold.
